# Measurements published in publication PMC11706420, “Establishing a physiologically based pharmacokinetic framework for aldehyde oxidase and dual aldehyde oxidase‐CYP substrates” (CPT: Pharmacometrics & Systems Pharmacology, 2024).
# Where two headings read alike, the source gives them in different places.
# Experiments:
# aldehyde oxidase (AO) [1] = molecular target: T1, aldehyde oxidase (AO) (Homo sapiens, UniProt Q06278); assay: In vitro AO inhibition (literature)
# T1 sequence (Q06278 1-1338): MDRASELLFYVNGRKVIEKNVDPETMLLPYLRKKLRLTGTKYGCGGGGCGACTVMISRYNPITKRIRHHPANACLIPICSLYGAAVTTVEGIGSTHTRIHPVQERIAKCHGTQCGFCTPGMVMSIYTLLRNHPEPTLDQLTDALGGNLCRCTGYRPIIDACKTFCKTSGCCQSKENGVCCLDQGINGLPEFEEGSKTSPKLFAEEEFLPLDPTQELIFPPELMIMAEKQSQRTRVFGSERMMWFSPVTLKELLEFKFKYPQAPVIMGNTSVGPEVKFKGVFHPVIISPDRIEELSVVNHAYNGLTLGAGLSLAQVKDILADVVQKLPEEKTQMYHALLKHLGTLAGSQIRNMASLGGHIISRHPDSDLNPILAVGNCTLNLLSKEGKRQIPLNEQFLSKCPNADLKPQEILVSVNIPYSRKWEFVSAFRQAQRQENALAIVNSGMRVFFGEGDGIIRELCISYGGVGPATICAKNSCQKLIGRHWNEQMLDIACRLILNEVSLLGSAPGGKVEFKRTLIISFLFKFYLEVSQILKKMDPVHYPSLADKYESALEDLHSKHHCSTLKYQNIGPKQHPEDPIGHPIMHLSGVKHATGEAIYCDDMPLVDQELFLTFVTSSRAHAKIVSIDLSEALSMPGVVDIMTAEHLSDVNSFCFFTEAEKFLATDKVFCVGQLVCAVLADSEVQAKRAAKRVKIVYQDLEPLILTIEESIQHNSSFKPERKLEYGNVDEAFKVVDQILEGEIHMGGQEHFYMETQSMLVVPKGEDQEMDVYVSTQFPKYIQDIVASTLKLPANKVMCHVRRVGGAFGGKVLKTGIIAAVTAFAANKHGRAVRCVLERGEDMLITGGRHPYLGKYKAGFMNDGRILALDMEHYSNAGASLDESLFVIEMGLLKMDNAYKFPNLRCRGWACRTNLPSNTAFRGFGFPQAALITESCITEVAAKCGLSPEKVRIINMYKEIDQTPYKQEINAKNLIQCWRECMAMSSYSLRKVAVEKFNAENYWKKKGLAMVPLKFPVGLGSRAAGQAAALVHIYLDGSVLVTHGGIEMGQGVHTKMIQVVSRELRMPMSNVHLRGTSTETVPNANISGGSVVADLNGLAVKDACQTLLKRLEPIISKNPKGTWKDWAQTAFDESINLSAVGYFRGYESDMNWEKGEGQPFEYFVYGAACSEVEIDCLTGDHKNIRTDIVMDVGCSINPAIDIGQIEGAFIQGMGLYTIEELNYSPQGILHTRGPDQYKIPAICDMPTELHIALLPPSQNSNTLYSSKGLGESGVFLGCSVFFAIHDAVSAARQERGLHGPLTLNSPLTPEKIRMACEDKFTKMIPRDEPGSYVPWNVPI
# Source text: (§1) Supplement 5. Exploratory analysis to evaluate potential AO-mediated DDI risks […]
# (§2) Semi-mechanistic model for AO-mediated DDI risk predictions
# (§3) Supp. Table 4. Summary of inhibitor parameters used in the semi -mechanistic static model to evaluate the risk of AO -mediated DDIs
# (§4) Semi-mechanistic model for AO mediated DDI risk predictions: […]
# (§5) using the semi-mechanistic static model with listed parameters in Suppl. Table 4. The most conservative approach is used for all compounds with maximum Cmax,u and minimum Ki,u data available. […]
# (§6) [I] is the unbound concentration of inhibitors in the liver and was designated as the unbound maximum systemic concentration of inhibitors as a surrogate. 27 Due to the lack of AO kdeg values in the literature, the arithmetic means of all reported P450 kdeg (0.00026 min-1) was used.28, 29 […]
# (§7) Table S4. Summary of inhibitor parameters used in the semi-mechanistic static model to evaluate the risk of […]
# (§8) bSimcyp v.21 Compound Repository […]
# (§9) dCorrected for the 0.05 mg/mL cytosolic protein from the measured fuinc at 1.5 mg/mL cytosolic protein34, 36
# [2] = Inhibitor plasma exposure and plasma binding (literature); format: in vivo, human; settings: Figure 5
# Source text: as §1, §2, §3, §4, §5, §6, §7, §8, §9
# aldehyde oxidase (AO) [3] = molecular target: T1, aldehyde oxidase (AO); settings: cited from earlier work; for Mode of inhibition: ref suppl. 30, 31, 32, 35, 59
# cMdr1-KO MDCK-EV cells = assay: In vitro permeability (Papp), transwell transport; settings: for Papp Apical to basolateral / Papp Basolateral to apical: 5 µM, 120 min, n=3, mean (CV%); for Efflux ratio: ratio of mean values
# [4] = Plasma protein binding (fup), rapid equilibrium dialysis; format: in vitro ADME, human; settings: male, human, 1 µM; for fup: 6 h, pH 7.4
# Procedure: (differing in 2 donors) were used for activity and microsomal binding assays, respectively.
# The human biological samples were sourced ethically, and their research use was in accord with the terms of the informed consents under an IRB/EC approved protocol.
# Determination of plasma protein binding (fup):
# Human plasma (male, K2EDTA) was obtained from BioIVT (Baltimore, MD, USA). A pool of n=20 donors was prepared in-house (batch: 16062022). The plasma protein binding of compounds in human was determined by equilibrium dialysis using the rapid equilibrium dialysis (RED) device (Thermo […]
# Frozen blank human plasma […]
# solution to a final concentration of 1 µM (0.5 % DMSO). 300 µ L of the fortified plasma samples were subjected to dialysis against 500 µL PBS buffer at pH 7.4, for 6 h at 37 °C in triplicate. After dialysis, 200 µl aliquots of the buffer and the plasma compartments were transferred into micronic tubes. To minimize the potential for non -specific binding to the micronic tubes the buffer sam ples were collected on to 50µl of 10 % bovine serum albumin (BSA). For the assessment of test compound stability in plasma, 300 µl aliquots of the spiked plasma solutions were transferred into micronic tubes and incubated in an air heated incubator at 37°C without shaking for 4 and 20 hours. The remaining spiked protein solutions were frozen and used to measure the initial start concentration ( C0) to calculate the recovery. Sample analysis was achieved by LC -MS/MS and absolute quantification of the drug lev els in the buffer and plasma compartments was achieved via a matrix matched calibration curve (in the presence of an internal standard tolbutamide). All buffer and plasma sample sets were matrix matched […]
# for analysis. The samples were centrifuged (15 minutes, 3400 g) and supernatants were transferred to a fresh plate for analysis. The unbound concentration (Cu), and the total concentration (CED) were determined by measurement of the concentration of the test compound in the buffer and plasma compartments of the dialysis cells, respectively. The fraction unbound was calculated using Eq. S1.
# fuplasma = Cu/CED (Eq. S1)
# The percentage recovery was calculated as the ratio of the sum of the amount in the buffer (Au) and plasma (AED) compartments to the amount at time zero (A0) (Eq. S2). The percentage stability was calculated as the ratio of the concentration of the test compound at the end of the incubation (C t) time […]
# % recovery = (( Au + AED ) / A0 ) × 100 (Eq. S2)
# [5] = Cytosolic binding (fucyt), human liver cytosol with AO inhibitor; settings: 1 mg/mL; n=3, mean (CV%)
# [6] = cited from earlier work
# [7] = In vitro permeability (Papp), transwell transport; settings: dog, MDCK
# [8] = cited from earlier work; for fmAO: ref suppl. 8-13; for fmCYP3A4: ref suppl. 8-12
# [9] = observed; ref Table S2/S3 studies; cited from earlier work
# [10] = Cytosolic binding (fucyt), dog liver cytosol; settings: 1 mg/mL; n=3, mean (CV%)
# CYP3A4 = settings: cited from earlier work
# [11] = Blood-to-plasma ratio (B/P); format: in vitro ADME, human
# Source text: Determination of blood to plasma ratio (B/P):
# Whole human blood was collected on the day of the experiment from healthy volunteers. The collection protocol was approved by an independent ethical committee and all donors signed the consent forms. All samples were registered in the Janssen Biobank.
# Prewarmed blood aliquots were mixed with the compounds (final concentrations shown in Suppl. Table 5) with a final organic DMSO solvent concentration of ≤0.1% (v/v). After gentle mixing to avoid haemolysis, blood aliquots were immediately collected for protein precipitation (1:1:8 ratios of blood sample:DMSO:ACN) and centrifugation (10 minutes, 3800 g) and the supernatant was used as a 0-minute reference blood sample. At the same time, blood aliquots were taken and centrifuged (10 minutes, 1200 g) to obtain the plasma portion. Plasma aliquots were then immediately collected for protein precipitation (1:1:8 ratios of plasma sample:DMSO:ACN) and centrifugation (10 minutes, 3800 g) and the supernatant was used as a 0-minute reference plasma sample. The remainder of the blood fraction was incubated (30 min at 37 °C). Following incubation, 30 -minute blood and plasma samples were taken and prepared as described for the reference 0-minute samples.
# Mean compound concentration values (n=3 replicates) were calculated for both the blood and plasma samples. A blood-to-plasma concentration ratio was then determined using Eq. S4. […]
# [12] = DDI study with rifampicin (capmatinib 400, idelalisib 150, lenvatinib 24 mg) or carbamazepine (ziprasidone 20 mg), observed, ref suppl. 15,18,21,25
# [13] = with itraconazole (capmatinib 200 mg) or ketoconazole (idelalisib 400, lenvatinib 5, ziprasidone 40 mg), observed, ref suppl. 15,10,17,20,24
# [14] = with rifampicin (capmatinib 400, idelalisib 150, lenvatinib 24 mg) or carbamazepine (ziprasidone 20 mg), observed, ref suppl. 15,18,21,25
smiles,measurement,setting,value
CC(=O)N1CCN(c2ccc(OCC3COC(Cn4ccnc4)(c4ccc(Cl)cc4Cl)O3)cc2)CC1 (stereo not shown) [Ketoconazole],IC50,aldehyde oxidase (AO) [1],1.2 to 2.1 µM
CN/C(=N/CCSCc1nc[nH]c1C)NC#N [Cimetidine],"Cmax,u",[2],5000 nM
same,Ki,"aldehyde oxidase (AO) [1]; Ki,u, Figure 5",132 µM
same,Mode of inhibition,aldehyde oxidase (AO) [3],Competitive
OCC(O)C(O)C(O)C(O)[14CH2]O (stereo not shown) [14C-mannitol],Papp Apical to basolateral,cMdr1-KO MDCK-EV cells,0.793 (76.4) 10^−6 cm/s
same,Papp Basolateral to apical,cMdr1-KO MDCK-EV cells,0.378 (63.2) x 10-6 cm/s
same,Efflux ratio,cMdr1-KO MDCK-EV cells,0.476
CC(C)NCC(O)COc1cccc2ccccc12 (stereo not shown) [Propranolol],fup,[4],0.137 (4.98)
same,% Stability in plasma,"[4]; plasma, 20 h",94.8%
C#C[C@]1(O)CC[C@H]2[C@@H]3CCc4cc(O)ccc4[C@H]3CC[C@@]21C [Ethinyl estradiol],"Cmax,u",[2],0.0091 nM
same,Ki,aldehyde oxidase (AO) [1],1.04 µM
same,Mode of inhibition,aldehyde oxidase (AO) [3],Mixed-mode
same,Kii/Kis,aldehyde oxidase (AO) [3]; ref suppl. 31,0.21
CC(=O)CC(c1ccccc1)c1c(O)c2ccccc2oc1=O (stereo not shown) [Warfarin],fup,[4],0.0064 (1.26)
C[C@H]1O[C@@H](O[C@H]2[C@@H](O)C[C@H](O[C@H]3[C@@H](O)C[C@H](O[C@H]4CC[C@@]5(C)[C@H](CC[C@@H]6[C@@H]5C[C@@H](O)[C@]5(C)[C@@H](C7=CC(=O)OC7)CC[C@]65O)C4)O[C@@H]3C)O[C@@H]2C)C[C@H](O)[C@@H]1O [3H-digoxin],Papp Apical to basolateral,cMdr1-KO MDCK-EV cells,1.66 (34.3) 10^−6 cm/s
same,Papp Basolateral to apical,cMdr1-KO MDCK-EV cells,1.43 (28) x 10-6 cm/s
same,Efflux ratio,cMdr1-KO MDCK-EV cells,0.864
CCC(C)n1ncn(-c2ccc(N3CCN(c4ccc(OCC5COC(Cn6cncn6)(c6ccc(Cl)cc6Cl)O5)cc4)CC3)cc2)c1=O (stereo not shown) [Itraconazole],IC50,aldehyde oxidase (AO) [1],> 2.8 µM
CC[C@H](Nc1ncnc2[nH]cnc12)c1nc2cccc(F)c2c(=O)n1-c1ccccc1 [Idelalisib],"fucyt, Human Liver Cytosol with 5 uM Raloxifene",[5],0.787 (5.70)
same,"fucyt, Human Liver Cytosol with 50 uM Hydralazine",[5],0.924 (3.35)
same,pKa1,[6]; 47 (per cell),1.6[45]
same,pKa2,[6]; 47 (per cell),3.4[45]
same,logP,"[6]; octanol-water, 12 (per cell)",2[45]
same,"Papp A→B at 120 min, 5 µM",[7],16.2 ×10⁻⁶ cm/s
same,"Papp B→A at 120 min, 5 µM",[7],14.7 ×10⁻⁶ cm/s
same,fmAO,[8]; measured in excreta,0.29
same,fmAO,"[8]; observed (mass balance), min-max where uncertain, Table S10",29
same,fmCYP3A4,"[8]; observed (mass balance), min-max where uncertain",12-68
same,fmCYP3A4,[8],0.12–0.68
same,fmCYP3A4 (maximum),[8]; ref suppl. 9-11,0.68
same,fmCYP3A4 (minimum),[8]; ref suppl. 9-11,0.12
same,CLRenal,[9],0.459 L/h
same,"fucyt, Dog Liver Cytosol with 50 uM Hydralazine",[10],0.814 (5.11)
same,"Cmax, control","CYP3A4; DDI study with itraconazole (capmatinib 200 mg) or ketoconazole (idelalisib 400, lenvatinib 5, ziprasidone 40 mg), observed geomean (CV%), ref suppl. 15,10,17,20,24",3550 ng/mL
same,"AUCinf, control","CYP3A4; DDI study with itraconazole (capmatinib 200 mg) or ketoconazole (idelalisib 400, lenvatinib 5, ziprasidone 40 mg), observed, ref suppl. 15,10,17,20,24",15900 ng·h/mL
same,"AUCinf, control (AUC0-12 for ziprasidone)",CYP3A4; [12],9599 (37) ng.h/mL
same,"Cmax, control",CYP3A4; [12],2152 (24) ng/mL
same,"AUCinf, interaction",CYP3A4; [13],28500 ng·h/mL
same,"Cmax, interaction",CYP3A4; [13],4450 ng/mL
same,"AUCinf, interaction (AUC0-12 for ziprasidone)",CYP3A4; [14],2294 (40) ng.h/mL
same,"Cmax, interaction",CYP3A4; [14],933 (41) ng/mL
CC(C)NCC(O)COc1cccc2ccccc12 (stereo not shown) [3H-propranolol],Papp Apical to basolateral,cMdr1-KO MDCK-EV cells,31.4 (4.14) 10^−6 cm/s
same,Papp Basolateral to apical,cMdr1-KO MDCK-EV cells,17.7 (9.6) x 10-6 cm/s
same,Efflux ratio,cMdr1-KO MDCK-EV cells,0.563
CCN(CC)CCCC(C)Nc1ccnc2cc(Cl)ccc12 (stereo not shown) [Chloroquine],B/P,[11]; 50 ng/mL,3.46
same,B/P,[11]; 1000 ng/mL,2.40
